Patent US8410045B2, “Camptothecin-peptide conjugates and pharmaceutical compositions containing the same” (Drais Pharmaceuticals, Inc., priority 2006, dated 2013)
“And” between values parts separate entries of the source, which are not always exact repeats. Equal values may be shown once. Read-outs that look alike come from different tables or passages of the source. Marks after values point to notes of the source that are not given here.

Tests used:
[1] = Stability of conjugates in citrated plasma at 37° C. (half life time, HPLC fluorescence); type: in vitro ADME, human; conditions: for half-life: human, plasma
Outline: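 Conjugates at 2.55 μM incubated at 37° C in citrated plasma of several species, including human and dog. After TFA/acid extraction, released free camptothecin derivative (e.g. SN38) measured by reversed-phase C18 HPLC with fluorescence detection; half-life taken as time to 50 mol% release.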

[2] = system: LS 174T human colorectal carcinoma tumor; assay: Antitumor efficacy in human LS 174T xenograft colon tumor model implanted in nude rats; type: in vivo
Experimental: The LS 174T study was performed using female nude rats (8 weeks old) purchased from Harlan breeding center (Gannat, France). LS 174T tumors were established by a subcutaneously implantation of cell (ATCC Number: CCl-188) suspensions in the right flank of the animals. The first injection of drugs was performed when the tumors reached a size of about 1000 mm^3. The tumor volume was calculated using the following formula: [length×width^2]/2.

[3] = system: MDA-MB-231 mammary carcinoma; assay: Antitumor efficacy in MDA-MB-231 mammary carcinoma model in nude mice; type: in vivo; conditions: Table 7, i.v. Q2D3 × 3 W
[4] = Toxicity study in the beagle dog following intravenous infusion; conditions: for Reduction in WBC at D5 (%) / Toxic signs Day 1 / Toxic signs Following Days: i.v. infusion
Experimental: Adult female and male beagle dogs were individually housed with free access to tap water. A pellet diet was distributed daily.
Dogs (1 dog for each drug and dose) were infused intravenously through the cephalic or saphenous vein. These intravenous infusions were made using a single-use catheter (Intraflon®) and a plastic syringe connected to a syringe pump. During the injection, the animals were restrained in a hammock.
Conjugates were dissolved in water for injection (10% of final volume) and diluted with 0.9% NaCl to their final concentration. The volume administered to each animal was adjusted according to body weight.
Clinical signs, hematological and intestinal toxicities were monitored during a period of 15 days after infusion. Each animal was checked at least twice a day for mortality or signs of morbidity.
The body weight of each animal was recorded on the day −1, 4, 10 and 13.
Peripheral blood samples were taken into EDTA tubes for the determination of following parameters on days −1, 5, 11 and 14: erythrocytes, hemoglobin, mean cell volume, packed cell volume, mean cell hemoglobin concentration, mean cell hemoglobin, thrombocytes, leucocytes, differential white cell count with cell morphology.

[5] = system: HCT 116 human epithelial colon carcinoma cells; assay: cells; type: cell-based
Experimental: Cytotoxic evaluation was performed by seeded cells for 24 h prior to the addition of the therapeutic compound. Cells were incubated for 48 h (37° C.) with different dilutions of the therapeutic compound. Cell viability was then assessed using the WST-1 assay (Roche). The results are expressed as mean cytotoxic concentrations (IC50 value or molar concentration that inhibits 50% of cell viability) that were estimated from sigmoid regression, using Graph Pad Prism 3.02 software.
HCT 116 (ATCC #: CCL-247): human epithelial colon carcinoma cells. Cells were cultured in Mc Coy's 5a medium+1.5 mM L-glutamine and 10% fetal bovine serum. Cells were plated at a density of 8000 cells/well in 96-well plates.

[6] = system: HCT 116 human colorectal carcinoma tumor
NCI-H460 lung carcinoma = assay: Antitumor efficacy in NCI-H460 lung carcinoma model in nude mice; conditions: Table 7, i.v. Q2D3 × 3 W
[7] = Table 4, 20 (cumulative 100) μmol/kg, i.v. bolus, Q3/4Dx5
[8] = Table 7, i.v. Q4D × 5, 10 μmol/kg
[9] = Table 7, i.v. Q4D × 5, 20 μmol/kg
[10] = Table 3, 30 (cumulative 90) μmol/kg, i.v. bolus, Q4Dx3
[11] = Table 7, i.v. Q2D3 × 3 W, 25 μmol/kg

## CCc1c2c(nc3ccc(OC(=O)[C@H]4CC[C@H](CNC(=O)C5CCC(CN6C(=O)CC(SC[C@H](N)C(=O)N[C@H](C(=O)N[C@@H](CCCCN)C(=O)N[C@@H](CCCNC(=N)N)C(=O)NCC(=O)N[C@@H](CC(C)C)C(=O)N[C@@H](CCCCN)C(=O)N[C@@H](CC(C)C)C(=O)N[C@@H](CCCNC(=N)N)C(=O)N[C@@H](Cc7c[nH]cn7)C(=O)N[C@H](C(=O)N[C@@H](CCCNC(=N)N)C(=O)N7CCC[C@H]7C(=O)N[C@@H](CCCNC(=N)N)C(=O)N[C@H](C(=O)N[C@H](C(=O)N[C@@H](CCCNC(=N)N)C(=O)N[C@@H](CCSC)C(=O)N[C@@H](CC(=O)O)C(=O)N[C@H](C(=O)O)C(C)C)[C@@H](C)O)C(C)C)C(C)C)C(C)C)C6=O)CC5)CC4)cc13)-c1cc3c(c(=O)n1C2)COC(=O)[C@]3(O)CC (single isomer, unassigned) [DPV1047-BCH-SN38]
[1]; human plasma
  half life time, times longer than the DPV1047-linker #2-SN38 conjugate: 60 times
[1]; DPV1047-linker-SN38, 2.55 μM, citrated plasma, read-out: Half life time, Human plasma
  half-life: 6.67 h
[1]; Table 10, SN38 conjugates, read-out: Human Plasma Half life time
  half-life: 6 h
[1]; Table 12, CPP-linker #5-SN38 conjugates incl. D conformation, read-out: Human Plasma Half life time
  half-life: 6.37 h
[2]; [7]
  Minimal T/C (%): 43%
  TGI %: 57*** %
[2]; [8]
  Optimal T/C %: 47.2%
  TGI %: 52.8%
[2]; [9]
  Optimal T/C %: 42.8%
  TGI %: 57.2%
[3]; 12.5 μmol/kg
  Optimal T/C %: 34.1%
  TGI %: 65.9%
[3]; 25 μmol/kg
  Optimal T/C %: 30.1%
  TGI %: 69.9%
[4]; dog, 20 mg/kg
  reduction in WBCs: 93%
  Reduction in WBC at D5 (%): −93%
  Toxic signs Day 1: None
  Toxic signs Following Days: Decrease in food
[4]; dog, 30 mg/kg
  clinical signs of toxicity: clear toxicological signs including diarrhea and a severe hematoxicity
  Reduction in WBC at D5 (%): −96%
  Toxic signs Day 1: None
  Toxic signs Following Days: Liquid faeces D4
[4]; dog, 5 mg/kg
  Reduction in WBC at D5 (%): −60%
  Toxic signs Day 1: None
  Toxic signs Following Days: None
[4]; dog, 10 mg/kg
  Reduction in WBC at D5 (%): −50% and −57%
  Toxic signs Day 1: None
  Toxic signs Following Days: None
[4]; dog, in vivo, iv
  MTD: ~20 mg/kg
[4]; dogs, 5 and 10 mg/kg
  clinical signs: no clinical signs
[5]; 24 h
  IC50: 24 nM
[5]; 48 h
  IC50: 29 nM
[6]; HCT 116 tumor-bearing nude mice, conjugates administered at their MADs
  clinical signs of toxicity such as body weight loss, diarrhea or alopecia: No clinical signs of toxicity
[6]; [10]
  Minimal T/C (%): 10%
  TGI %: 80%
[6]; Table 5, Q1D5, 18 (cumulative 90) μmol/kg
  TGI (100-T/C %): 93*** %
[6]; Table 5, Q1D5, 18 (cumulative 90) μmol/kg, i.v. bolus
  Minimal T/C (%): 7%
[6]; Table 5, Q2D3x3W, DPV1047-BCH-SN38 25 (225), irinotecan 48 (432) μmol/kg
  Minimal T/C (%): 3%
[6]; Table 5, Q2D3x3W, DPV1047-BCH-SN38 25, irinotecan 48 μmol/kg
  TGI (100-T/C %): 97*** %
[6]; [11]
  Optimal T/C %: 3.4%
  TGI %: 96.6%
[6]; mouse, in vivo
  Minimal T/C (%): 10%
  TGI (100-T/C %): 90*** %
NCI-H460 lung carcinoma; 12.5 μmol/kg
  Optimal T/C %: 47.5%
  TGI %: 52.5%
NCI-H460 lung carcinoma; 25 μmol/kg
  Optimal T/C %: 22.9%
  TGI %: 77.1%
